Results from patent publication US20100291247A1, “OIL FORMULATIONS AND METHODS OF USE” (priority 2007, published 2010).

Assay: LC50 of vanillin MEC formulation (pathogen not named)
Type: in vivo
Settings: ppm of Vanillin, applied as 15% MEC formulation; organism not given
Excerpt: The unit commonly used in the art to determine the effectiveness of the antipathogenic formulation is LC50. This number represents the concentration of formulation at which 50% of pathogens die.

COc1cc(C=O)ccc1O [Vanillin, 4-Hydroxy-3-Methoxybenzaldehyde]
LC50: 66 ppm
